Results as given in patent US6441029B1, “Method of suppressing tumor growth with combinations of isoprenoids and statins” (Wisconsin Alumni Research Foundation, priority 1997, dated 2002).
“And” between values parts separate entries of the source, which are not always exact repeats. Equal values may be shown once. Read-outs that look alike come from different tables or passages of the source. Marks after values point to notes of the source that are not given here. Each block holds one molecule with its values, some of them ahead of it.

Legend:
implanted 216 melanomas = conditions: massive intake, 733 μmol/d; Meadows, et al., 1991; cited from earlier work
[1] = test system: Murine B16(F10) melanoma cells; test: IC50 determinations: net increase in 48 hour melanoma cell count; type: cell-based
Method: (§1) Cultures, seeded with 1-1.5×10^5 cells, were incubated for 24 hours at 37° C. in a humidified atmosphere of 5% CO2. Isoprenoids, dissolved in absolute ethanol, were added at 24 hours (0 time); all cultures contained 5 mL ethanol/L ([…]). The cultures were incubated for an additional 48 hours. The media was removed and the monolayers were washed twice with Hanks' Balanced Salt Solution (Sigma) and then incubated with a trypsin-EDTA solution (Sigma) at 37° C. for 2 minutes. Trypsin was inactivated by suspending the cells in medium containing 10% fetal bovine serum (Sigma). The cells were pelleted at 250×g and resuspended in Hanks' Balanced Salt Solution. Viable cells, cells that excluded 0.4% trypan blue (GIPCOBRL), were counted with a hemocytometer; 24 hour cell counts were deducted from final cell counts to provide an estimate of the net increase in cell number.
FIG. 1 is a representative evaluation of the dose-dependent impact of five different tocols on the proliferation of melanoma B16 cells. Cultures (3 mL) seeded with 1-1.5×10^5 cells were incubated for 24 hours prior to the introduction of the tocols. Viable cells were counted at 48 hours following the addition of the tocols. The cell count at 24 hours (0 time) is shown by the dashed line. The intersection of the solid horizontal line and the line plotted for each tocol indicates the concentration at which the tocol suppressed by 50% the increase in cell number during the incubation (IC50 value). IC50 values (mean, SD and n) for all isoprenoids tested are listed on Table 1. […] The growth-suppressive potency of the individual tocotrienols was inverse to the number of methyl groups on the 6-chromanol ring: d-α-tocotrienol (methyl groups at carbons 5, 7, 8 and 2)<<d-γ-tocotrienol (methyl groups at carbons 7, 8 and 2)<d-δ-tocotrienol (methyl groups at carbons 8 and 2)<<d-2-desmethyl tocotrienol (no methyl groups) (Table 1).

B16 melanoma cells = test: Paired isoprenoids, 48 hour cell count (FIG. 2A, 2B); type: cell-based, Murine
Method: as §1
We next determined that the effects of the isoprenoids on the growth of B16 melanoma cells in culture are additive, and in some cases, synergistic. FIG. 2A illustrates the additive effects of γ-tocotrienol and β-ionone on B16 melanoma cell populations. Values are means±SD, n=28; pooled SEM=36 (×10^4). Cell counts calculated to show the decreased population relative to the control are listed on the insert table.
FIG. 2B illustrates the additive effects of carvacrol and β-ionone on B16 melanoma cell populations. Values are means±SD, n=28; pooled SEM=62 (×10^4). Cell counts calculated to show the decreased population relative to the control are listed in the inset table. ^a-hMeans not sharing a superscript (a>b>c>d>e>f>g>h) are different (P<0.001). Referring to FIG. 2, B16 melanoma cells were incubated with β-ionone and d-γ-tocotrienol in one test (FIG. 2A). d-γ-Tocotrienol (7.5 μmol/L) and β-ionone (50 μmol/L) reduced the 48 hour cell count by 19% and 10% respectively (FIG. 2A). The 34% reduction in cell number achieved with the paired isoprenoids exceeded the 29% reduction predicted by the sum of the individual effects (FIG. 2A, inset). At higher concentrations d-γ-tocotrienol (15 μmol/L) and β-ionone (100 μmol/L) reduced the 48 hour cell count by 34% and […] respectively; the additive effect, a 68% reduction in cell number, was also greater than the sum of the individual effects (59%) (FIG. 2A, inset).
Carvacrol (50 μmol/L) and β-ionone (75 μmol/L) reduced the 48 hour cell count by 25% and 31% respectively; the additive effect, a 48% reduction in cell number, was less than the 56% reduction predicted by the sum of the individual effects. Carvacrol (100 μmol/L) and β-ionone (150 μmol/L) reduced the cell count by 35% and 65% respectively; the additive effect, an 84% reduction in cell number, again was less than the 100% reduction predicted by the sum the individual effects (FIG. 2B, inset). The reduction in cell number predicted by the sum of the individual effects of the isoprenoids was highly correlated with that achieved with the paired isoprenoids (r=0.91, n=8, P<0.01).

[2] = test system: established implanted B16 melanoma; test: Experiment 2: isoprenoid-enriched diets, survival of mice bearing established melanomas; type: in vivo, C57BL female mice; conditions: for Days survival, Mean / Days survival, Median: n = 12; for growth of established B16 melanomas: diet providing 7 μmol/d; for duration of host survival: experimental diets versus control, P<0.03
Method: Where noted, β-ionone was added to the oil. The diets, mixed weekly, were stored under refrigeration. Food cups were cleaned and refilled daily.
Experiment 2: Weanling female C57BL female mice (n=60, Harlan Sprague-Dawley) were acclimated to the housing conditions and AIN-76A diet (116 μmol dl-α-tocopherol/kg diet) as described above. Tumors were implanted and the mice continued to receive the AIN-76A diet. Beginning on day 8 post-implant the mice were palpated daily for the presence of a tumor. Tumors were first detected on day 14. Random numbers were generated for assigning each mouse in a sequential subset of five to a diet. Experimental treatments provided 2 and 4 mmol d-γ-tocotrienol/kg diet. We additionally tested the impact of β-ionone (2 mmol β-ionone/kg AIN-76A diet) and that of a blend of the two isoprenoids (2 mmol each/kg diet) on the survival of the mice.
We then asked if either dietary d-γ-tocotrienol or β-ionone would prolong the survival of mice bearing implanted melanomas. Dietary treatments were initiated following the detection of solid tumors. We also asked whether these structurally diverse isoprenoids would have an additive effect on survival. The experimental groups were constructed by random assignment of each member of successive subsets of 5 mice to one of the experimental diets. […] Treatments increased median duration of survival by 42±4.5% and the mean duration of survival by 30% (P<0.005); differences between duration of survival means of the experimental groups were not significant (Table 3, FIG. 3). FIG. 3 is a survival curve for host mice receiving isoprenoid-enriched diets following the detection of a solid implanted B16 melanoma. Mean survival durations are presented on Table 4. β-ionone and γ-tocotrienol^1 treatments provided 2 mmol of the isoprenoid/kg diet; the blend provided 2 mmol of each isoprenoid/kg diet; and γ-tocotrienol^2 provided 4 mmol γ-tocotrienol/kg diet.

[3] = test system: murine melanoma B16/F10 cells; test: In vitro growth assays of lovastatin, β-ionone and γ-tocotrienol alone and combined (Table 5); type: cell-based
[4] = test system: Murine B16(F10) melanoma cells; conditions: L. He, et al., J. Nutr. 1997; read-out: IC50, proliferation of murine melanoma B16/F10 cells; cited from earlier work
[5] = test system: implanted murine melanoma B16F10 tumors; conditions: cited from earlier work
[6] = ubiquinone given to patients receiving 30 mg/kg or higher doses of lovastatin; cited from earlier work
B16(F10) melanoma = conditions: for retardation in tumor growth: 10 days prior to and 28 days following implantation, P<0.05
Method: The first examined the impact of a diet-relevant intake of d-γ-tocotrienol on the growth of B16(F10) melanomas in host mice. […] We first prepared a basal diet mix, patterned after the AIN-76A formulation (American Institute of Nutrition, 1977) but free of corn oil and dl-α-tocopherol. These ingredients and Vitamin E-stripped corn oil were purchased from Teklad Test Diets, Madison, Wis. Stock solutions of dl-α-tocopherol (80 μmol/g) and d-γ-tocotrienol (80 μmol/g) were prepared with vitamin E-stripped corn oil. Stock solutions of the tocols, diluted with vitamin E-stripped corn oil, were mixed with the basal diet to provide finished diets containing 5% corn oil and specified tocol concentrations. Where noted, β-ionone was added to the oil. The diets, mixed weekly, were stored under refrigeration. Food cups were cleaned and refilled daily.
Experiment 1: Weanling C57BL female mice (Harlan-Sprague Dawley, Madison, Wis.) were housed in groups of four on wood shavings in plastic cages and maintained at 25° C. with a 12 hour light-dark cycle. The four groups of mice (20/group) were fed experimental diets for 10 days prior to and for 28 days following the implantation of B16 melanoma cells. The split plot design consisted of four treatments comprised of two tocols, dl-α-tocopherol and d-γ-tocotrienol, each presented at two levels, 116 and 924 μmol/kg diet. This design permitted two comparisons of diets equal in tocol content and one comparison of diets about equal in d-α-tocopherol equivalents. […] We then corrected for the biological activity of the dl-α-tocopherol mixture (70% of the activity of d-α-tocopherol) in arriving at the 8:1 tocotrienol/tocopherol ratio used in formulating the experimental diets. Melanoma cells, cultured and harvested as previously, described (Shoff, et al., 1991), were washed twice with RPMI 1640 containing 10% Fetal Bovine Sera (GIBCOBRL). The pelleted cells were suspended in RPMI 1640 and counted (98% viable) after a 1:20 dilution in 0.4% trypan blue. The cells were further diluted in RPMI 1640 (1×10^8 cells/L) and 0.1 mL of the suspension (1×10^4 cells) was injected subcutaneously into the flank of each mouse. […] The mice were killed by CO2 overdose and the tumors were excised and weighed.
Statistical Methods: StatView and SuperANOVA software (Abacus Concepts, Berkeley, Calif.) were used for the assessment of treatment-mediated effects. Treatment-mediated differences in body and tumor weights, days to tumor appearance and days to morbidity were identified with split plot analysis of variance and pairwise t-tests of least squares means. Treatment-mediated differences in days to morbidity were also assessed using parametric (paired t-test) and nonparametric (Wilcoxon signed rank) tests (Haycock, et al., 1992).
The first dietary study evaluated the impact of d-γ-tocotrienol and dl-α-tocopherol on days to detection of a solid tumor and growth of implanted B16 melanomas.

[7] = 48 hour incubation; means ± SD; read-out: IC50: concentration required to suppress the increase in the population of melanoma cells by 50% during a 48 hour incubation
[8] = read-out: IC50: concentration required to suppress the increase in the population of melanoma cells by 50% during a 48 hour incubation; 48 hour incubation; means ± SD

Compound: O=C1O[C@H]([C@@H](O)CO)C(O)=C1O [ascorbic acid]
growth of implanted melanomas (implanted 216 melanomas): suppressed

Compound: CC(=O)C=CC1=C(C)CCCC1(C)C [β-Ionone]
IC50 [1, 7]: 140 ± 23 µM | reduction of 48 hour cell count (B16 melanoma cells; 50 μmol/L): 10% | reduction of 48 hour cell count (B16 melanoma cells; 75 μmol/L): 31% | reduction of 48 hour cell count (B16 melanoma cells; 100 μmol/L): 16% | reduction of 48 hour cell count (B16 melanoma cells; 150 μmol/L): 65% | Days survival, Mean ([2]; 2 mmol/kg diet): 18.27^a Days | Days survival, Median ([2]; 2 mmol/kg diet): 23.0 days | growth of established B16 melanomas [2]: suppressed | duration of host survival [2]: significantly increased | Growth ([3]; 50 μmol/L): 90 % of Control | Growth ([3]; 100 μmol/L): 84 % of Control | decrease in cell growth ([3]; 150 μM): 32% | Growth ([3]; 150 μmol/L): 68 % of Control | IC50 [4]: 140 µM | growth of implanted murine melanoma B16F10 tumors ([5]; 2 mmol/kg diet): suppressed

Compound: Cc1ccc(C(C)C)cc1O [Carvacrol, 5-isopropyl-2-methylphenol, reference compound]
IC50 [1, 8]: 120 ± 15 µM | reduction of 48 hour cell count (B16 melanoma cells; 50 μmol/L): 25% | reduction of 48 hour cell count (B16 melanoma cells; 100 μmol/L): 35%

Compound: COC1=C(OC)C(=O)C(C/C=C(\C)CC/C=C(\C)CC/C=C(\C)CC/C=C(\C)CC/C=C(\C)CC/C=C(\C)CC/C=C(\C)CC/C=C(\C)CC/C=C(\C)CCC=C(C)C)=C(C)C1=O [Ubiquinone]
incidence of musculoskeletal toxicity of lovastatin [6]: did not decrease | severity of musculoskeletal toxicity of lovastatin [6]: significantly decreased

Compound: Cc1c(C)c2c(c(C)c1O)CCC(C)(CCCC(C)CCCC(C)CCCC(C)C)O2 (stereo not drawn) [d1-α-Tocopherol, 2,5,7,8-tetramethyl-2-(4,8,12-trimethyltridecyl)-chroman-6-ol]
IC50 [1, 8]: > 1600 µM | impact on cell number (FIG. 1) ([1]; viable cells at 48 hours after addition): no impact on cell number | body weight at the time of tumor implant (B16(F10) melanoma; mouse, in vivo): significantly lower

Compound: CC(C)=CCCC(C)=CCCC(C)=CCCC1(C)CCc2cc(O)c(C)c(C)c2O1 (stereo not drawn) [d-γ-Tocotrienol, 2,7,8-trimethyl-2-(4,8,12-trimethyltrideca-3,7,11-trienyl)-chroman-6-ol]
IC50 [1, 8]: 20 µM | reduction of 48 hour cell count (B16 melanoma cells; 7.5 μmol/L): 19% | reduction of 48 hour cell count (B16 melanoma cells; 15 μmol/L): 34% | further change in duration of survival on doubling the intake ([2]; 14 μmol/d versus 7 μmol/d, P=0.95): -0.21 days | Days survival, Mean ([2]; 2 mmol/kg diet): 18.67^a Days | Days survival, Median ([2]; 2 mmol/kg diet): 20.0 days | Days survival, Mean ([2]; 4 mmol/kg diet): 18.46^a Days | Days survival, Median ([2]; 4 mmol/kg diet): 22.0 days | growth of established B16 melanomas [2]: suppressed | increase in duration of survival ([2]; diet providing an intake of 7 μmol/d): 35% | duration of host survival [2]: significantly increased | Growth ([3]; 5 μmol/L): 90 % of Control | Growth ([3]; 7.5 μmol/L): 81 % of Control | Growth ([3]; 10 μmol/L): 85 % of Control and 72 % of Control | Growth ([3]; 15 μmol/L): 66 % of Control and 77 % of Control | Growth ([3]; 20 μmol/L): 65 % of Control | retardation in tumor growth (B16(F10) melanoma; 116 μmol/kg diet, isomolar substitution for dl-α-tocopherol in AIN-76A diet): 36% | retardation in tumor growth (B16(F10) melanoma; 928 μmol/kg diet, Vitamin E-equivalent substitution for dl-α-tocopherol in AIN-76A diet): 50% | days post-implant to tumor detection (B16(F10) melanoma; 928 μmol/kg diet, least mean squares analysis): differed significantly from the effects of the other treatments | 28 day tumor weight, least mean squares analyses (B16(F10) melanoma; 116 and 928 μmol/kg diet): tumor growth-suppressive action | growth of the B16 melanoma implanted in the flank of host mice (B16(F10) melanoma; diet providing an intake of 0.4 μmol/d (diet-relevant intake)): suppressed | suppression of tumor growth (B16(F10) melanoma; diet providing only the d-α-tocopherol-equivalent of the AIN-76A diet): highly significant suppression | IC50 [4]: 20 µM | growth of implanted murine melanoma B16F10 tumors ([5]; 116-2000 μmol/kg diet): suppressed

Compound: C=C(C)C1CC=C(C=O)CC1 (stereo not drawn) [Perillaldehyde, [R]-4-isopropenyl-1-carboxaldehyde cyclohexene]
IC50 [1, 8]: 120 ± 17 µM

Further lines, results first:

IC50 [1, 7]: 110 µM
Compound: CC(C)=CCCC(C)=CCCC(C)=CCCC1(C)CCc2c(C)c(O)c(C)c(C)c2O1 (stereo not drawn) [d-α-Tocotrienol, 2,5,7,8-tetramethyl-2-(4,8,12-trimethyltrideca-3,7,11-trienyl)-chroman-6-ol]

IC50 [1, 7]: 450 µM
Compound: C=C(C)[C@H]1CC=C(C)CC1 [d-Limonene, [R]4-isopropenyl-1-methyl-1-cyclohexene]

IC50 [1, 7]: 10 µM
Compound: CC(C)=CCCC(C)=CCCC(C)=CCCC1(C)CCc2cc(O)cc(C)c2O1 (stereo not drawn) [d-δ-Tocotrienol, 2,8-dimethyl-2-(4,8,12-trimethyltrideca-3,7,11-trienyl)-chroman-6-ol]

IC50 [1, 7]: 250 µM
Compound: C=C(C)[C@@H]1CC=C(CO)CC1 [Perillyl alcohol, [R]4-isopropenyl-1-methanol-cyclohexene]

IC50 [1, 7]: 150 ± 19 µM
Compound: CC(C)=CCC/C(C)=C/CO [Geraniol, trans 3,7-dimethyl-2,6-octadien-1-ol]

IC50 [1, 7]: 120 ± 15 µM
Compound: Cc1ccc(C(C)C)c(O)c1 [Thymol, 5-methyl-2-isopropylphenol]

IC50 [1, 7]: 50 µM
Compound: CC(C)=CCC/C(C)=C/CC/C(C)=C/CO [Farnesol, trans, trans 3,7,11-trimethyl-2,6,10 dodecatrien-1-ol]

IC50 [1, 7]: 0.9 µM
Compound: CC(C)=CCCC(C)=CCCC(C)=CCCC1CCc2cc(O)ccc2O1 (stereo not drawn) [d-2-desmethyl Tocotrienol, 2-(4,8,12-trimethyltrideca-3,7,11-trienyl)-chroman-6-ol]
